Key:
[1] = biological target: T1, VEGFR-2 (Homo sapiens, UniProt P35968); experiment: VEGFR-2 quantification by flow cytometry in HT-29; assay type: cell-based; parameters: Both membrane and total VEGFR-2 were relatively determined using dimethyl sulfoxide (DMSO) treated cells as a negative control; endogenous in cells; host or cells: HT-29 (colon adenocarcinoma) and HMEC-1 (human microvascular endothelial cells); conditions: 24 h
Experimental: (§7) We performed the study on both a HT-29 cancer cell line and a human microvessel endothelial cell line (HMEC-1). […] The effect of these selected derivatives on VEGFR-2, on HT-29 tumor cell line and on human microvessel endothelial cells (HMEC) was determined by flow cytometry technique. […] For these assays, cells were incubated for 24 h in the presence of the corresponding compounds at 10 µM concentration.

[2] = tested on: c-Myc; experiment: c-Myc quantification by flow cytometry in A-549; assay type: cell-based, human; conditions: A-549, 10 μM, 24 h, referred to control (DMSO)
Experimental: (§1) We evaluated the effect of the selected compounds on PD-L1 and on c-Myc proteins by flow cytometry after 24 h treatment at 10 μM concentration of compounds. Both, PD-L1 and c-Myc were relatively determined using DMSO treated cells as a negative control and BMS-8 as a positive one.
(§2) For the detection of total PD-L1 and c-Myc, cancer cells were seeded (3 × 10^5 cells/well) in 6-well plates and were incubated with the corresponding compounds for 24 h. Then they were collected, fixed, treated with 0.5% Triton^TM X-100 and stained with Alexa Fluor® 647 Rabbit monoclonal Anti-PD-L1 (ab215251) and FITC Rabbit monoclonal anti-c-Myc (ab223913).
(§3) We also checked results performing ELISA tests. For ELISA tests, lysates were collected, protein quantification was carried out by Bradford test and, then, PD-L1 and c-Myc were quantified using Human PD-L1 ELISA Kit 28-8 (ab214565) and c-Myc (Total) Human ELISA Kit (KHO2041), respectively, according to the manufacturer’s instructions.

[3] = tested on: HeLa (epithelioid cervix carcinoma); experiment: Cell proliferation assay (MTT); assay type: cell-based; conditions: Homo sapiens, 48 h, 2 days incubation, average ± SD of three experiments
From the text: (§4) The ability of Ureas 13–33 to inhibit cell proliferation was established by means of their IC50 values towards the human tumor cell lines HT-29 (colon adenocarcinoma), MCF-7 (breast adenocarcinoma), HeLa (epithelioid cervix carcinoma) and A549 (pulmonary adenocarcinoma), as well as towards the endothelial cell line HMEC-1 (human microvascular endothelial cells) and the non-tumor cell line HEK-293 (human embryonic kidney cells).
(§5) HT-29, MCF-7, HeLa, A549 and HEK-293 cell lines were maintained in Dulbecco’s modified Eagle’s medium (DMEM) containing glucose (1 g/L), glutamine (2 mM), penicillin (50 μg/mL), streptomycin (50 μg/mL), and amphotericin B (1.25 μg/mL), supplemented with 10% FBS. HMEC-1 cell line was maintained in Dulbecco’s modified Eagle’s medium (DMEM)/low glucose containing glutamine (2 mM), penicillin (50 μg/mL), streptomycin (50 μg/mL), and amphotericin B (1.25 μg/mL), supplemented with 10% FBS. For the development of tube formation assays in Matrigel, HMEC-1 cells were cultured in EGM-2MV Medium supplemented with EGM-2MV SingleQuots.
(§6) In 96-well plates, 3 × 10^3 (HeLa, A549, HMEC-1, HEK-293) or 5 × 10^3 (HT-29, MCF-7) cells per well were incubated with serial dilutions of the tested compounds in a total volume of 100 μL of their respective growth media. The 3-(4,5-dimethylthiazol-2-yl)-2,5-diphenyltetrazolium bromide (MTT; Sigma Chemical Co.) dye reduction assay in 96-well microplates was used. After 2 days of incubation (37 °C, 5% CO2 in a humid atmosphere), 10 μL of MTT (5 mg/mL in phosphate-buffered saline, PBS) was added to each well, and the plate was incubated for a further 3 h (37 °C). After that, the supernatant was discarded and replaced by 100 µL of DMSO to dissolve formazan crystals. The absorbance was then read at 540 nm by spectrophotometry. For all concentrations of compound, cell viability was expressed as the percentage of the ratio between the mean absorbance of treated cells and the mean absorbance of untreated cells. Three independent experiments were performed, and the IC50 values (i.e., concentration half inhibiting cell proliferation) were graphically determined using GraphPad Prism 4 software.

[4] = tested on: HEK-293 (human embryonic kidney cells); experiment: Cell proliferation assay (MTT); assay type: cell-based; conditions: HEK293, 48 h, 2 days incubation, average ± SD of three experiments
From the text: as §4, §5, §6

[5] = tested on: A549 (pulmonary adenocarcinoma); experiment: Cell proliferation assay (MTT); assay type: cell-based; conditions: Homo sapiens, A549, 48 h, 2 days incubation, average ± SD of three experiments
From the text: as §4, §5, §6

[6] = tested on: MCF-7 (breast adenocarcinoma); experiment: Cell proliferation assay (MTT); assay type: cell-based; conditions: Homo sapiens, MCF7, 48 h, 2 days incubation, average ± SD of three experiments
From the text: as §4, §5, §6

[7] = biological target: T1, VEGFR-2; experiment: VEGFR-2 quantification by flow cytometry in HMEC-1; assay type: cell-based; parameters: Both membrane and total VEGFR-2 were relatively determined using dimethyl sulfoxide (DMSO) treated cells as a negative control; endogenous in cells; host or cells: HMEC-1 (human microvascular endothelial cells); conditions: 10 µM, 24 h, relative to DMSO control
Experimental: as §7

[8] = tested on: HT-29 cells; experiment: Cell proliferation evaluation in co-cultures: HT-29 with Jurkat T cells; assay type: cell-based, human; conditions: 24 h
Experimental: We also studied the effect of Compounds 16, 23, 26 and 33 on tumor cell proliferation in the presence of PD-1 expressing Jurkat T-cells. For this assay, first interferon γ stimulated HT-29 cells were treated for 24 h with the selected compounds at 10 µM in presence of Jurkat T cells. Then, living cells were counted using trypan blue and a Neubauer chamber and by flow cytometry.
In 12-well plates, 10^5 HT-29 cells per well were seeded and incubated for 24 h with cell culture medium supplemented with IFN-γ (10 ng/mL; human, Invitrogen®) then medium was change by one containing 4 × 10^5 Jurkat T cells per well and 10 μM of the corresponding compound or DMSO for the control. After 24 h of incubation, supernatants were collected to determine Jurkat T cell living cells and, on the other hand, HT-29 cells were collected with trypsin. Both types of suspension cells were counted with the Neubauer chamber and trypan blue and also by flow cytometry.

[9] = biological target: PD-L1 (Homo sapiens, UniProt Q9NZQ7); experiment: PD-L1 quantification by flow cytometry in A-549; assay type: cell-based; parameters: endogenous in cells; host or cells: A-549 cancer cells; conditions: A-549, 10 μM, 24 h, referred to control (DMSO)
Experimental: as §1, §2, §3

[10] = tested on: c-Myc; experiment: c-Myc quantification by flow cytometry in HT-29; assay type: cell-based, human; conditions: HT-29, 10 μM, 24 h, referred to control (DMSO)
Experimental: as §1, §2, §3

[11] = HT-29, 10 µM, relative to DMSO control

T1 sequence (P35968 20-1356): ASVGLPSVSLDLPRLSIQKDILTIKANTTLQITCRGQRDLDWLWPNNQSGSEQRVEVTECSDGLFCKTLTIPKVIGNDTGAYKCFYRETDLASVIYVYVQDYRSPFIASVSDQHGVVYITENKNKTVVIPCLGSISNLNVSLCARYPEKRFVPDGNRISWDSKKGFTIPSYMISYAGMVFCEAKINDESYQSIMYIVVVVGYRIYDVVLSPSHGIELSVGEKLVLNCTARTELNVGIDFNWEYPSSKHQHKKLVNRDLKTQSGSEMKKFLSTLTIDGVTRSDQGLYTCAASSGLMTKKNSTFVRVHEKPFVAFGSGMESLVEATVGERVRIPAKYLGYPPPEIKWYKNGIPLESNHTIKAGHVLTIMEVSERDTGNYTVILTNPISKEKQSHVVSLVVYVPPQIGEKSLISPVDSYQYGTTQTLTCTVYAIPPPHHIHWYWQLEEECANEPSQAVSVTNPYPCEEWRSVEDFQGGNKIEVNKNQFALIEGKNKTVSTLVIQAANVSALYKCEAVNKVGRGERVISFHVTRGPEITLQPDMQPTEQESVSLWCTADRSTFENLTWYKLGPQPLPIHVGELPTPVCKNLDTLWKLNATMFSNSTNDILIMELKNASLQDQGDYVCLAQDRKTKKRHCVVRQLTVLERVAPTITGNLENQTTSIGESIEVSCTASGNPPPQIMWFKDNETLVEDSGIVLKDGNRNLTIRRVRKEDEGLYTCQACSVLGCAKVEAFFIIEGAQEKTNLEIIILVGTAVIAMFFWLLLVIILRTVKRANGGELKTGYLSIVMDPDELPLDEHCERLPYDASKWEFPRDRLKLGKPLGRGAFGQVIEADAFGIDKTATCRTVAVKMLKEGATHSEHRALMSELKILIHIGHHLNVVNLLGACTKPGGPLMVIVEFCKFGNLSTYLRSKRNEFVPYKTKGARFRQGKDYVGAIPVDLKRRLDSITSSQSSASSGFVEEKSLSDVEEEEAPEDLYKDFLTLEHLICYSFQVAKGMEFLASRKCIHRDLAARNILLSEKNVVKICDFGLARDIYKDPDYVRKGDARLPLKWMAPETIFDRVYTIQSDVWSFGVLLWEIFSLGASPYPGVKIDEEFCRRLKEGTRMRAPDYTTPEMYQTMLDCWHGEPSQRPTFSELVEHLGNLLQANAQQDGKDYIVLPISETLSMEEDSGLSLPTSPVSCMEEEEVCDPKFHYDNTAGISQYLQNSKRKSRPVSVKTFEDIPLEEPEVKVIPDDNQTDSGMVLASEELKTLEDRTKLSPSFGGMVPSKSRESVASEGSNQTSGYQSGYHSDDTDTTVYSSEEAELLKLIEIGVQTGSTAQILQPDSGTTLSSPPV
Chain of PD-L1 (Q9NZQ7 19-290): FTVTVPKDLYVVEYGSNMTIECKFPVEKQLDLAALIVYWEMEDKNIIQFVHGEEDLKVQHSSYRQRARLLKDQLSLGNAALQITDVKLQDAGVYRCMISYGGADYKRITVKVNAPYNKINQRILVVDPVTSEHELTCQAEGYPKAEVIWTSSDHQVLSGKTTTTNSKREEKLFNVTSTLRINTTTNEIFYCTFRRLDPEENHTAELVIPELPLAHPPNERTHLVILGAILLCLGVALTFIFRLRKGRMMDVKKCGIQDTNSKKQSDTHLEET

## COc1ccc(/C=C\c2cccc(NC(=O)Nc3ccc(Br)cc3)c2)cc1 [Compound 16]
[1]; 10 µM, statement for HT-29 and HMEC-1, read-out: inhibition of both membrane and total VEGFR-2
  inhibition at 10 µM: > 50%
[1]; [11]
  Membrane VEGFR-2 (%): 39 ± 9%
  Total VEGFR-2 (%): 55 ± 10%
[2]
  c-Myc (%) relative expression: 29 ± 5%
[3]
  IC50: 12 ± 4 µM
[4]
  IC50: 10 ± 2 µM
[5]
  IC50: 12 ± 2 µM
[6]
  IC50: 24 ± 7 µM
[7]
  Membrane VEGFR-2 (%): 45 ± 8%
  Total VEGFR-2 (%): 59 ± 5%
[8]; Homo sapiens, HT-29, co-cultured with Jurkat T-cells
  inhibition at 10 µM: ~90%
[8]; IFN-γ stimulated HT-29 co-cultured with Jurkat T cells, 10 µM, five experiments
  Living HT-29 cell proliferation (%): 9%
[9]
  PD-L1 (%) relative expression: 23 ± 8%
other
  melting point: 173 °C
[10]
  c-Myc (%) relative expression: 41 ± 10%

Source: publication PMC8067507, “Aryl Urea Based Scaffolds for Multitarget Drug Discovery in Anticancer Immunotherapies” (Pharmaceuticals, 2021)
